According to patent US20060159676A1, “Methods for modulating angiogenesis, lymphangiogenesis, and apoptosis with apelin compositions” (priority 2005, published 2006):

Assays:
endothelial cells = conditions: apelin 10 ng/ml, after 48 hours serum starvation; VEGF 50 ng/ml as comparison
Procedure: To determine what effect, if any, apelin expression has on apoptosis, TUNEL assays were performed. […] Cells were stained with a DAPI stain (FIG. 21, Panels A, B, and C) or in the TUNEL assay which stains for broken DNA, indicating cells undergoing apoptosis (FIG. 21, Panels D, E, and F).

CAM blood vessels = assay: Chick chorioallantoic membrane (CAM) assay; assay type: in vivo, chicken; conditions: 50 ng on filter disc, three days, vs PBS
Procedure: Chicken eggs were incubated at 37° C. in a humidified chamber. On day 10 of development, a small window was made in the outer shell of the egg, and the CAM was released from its attachment to the inner shell membrane. A larger window was then made in the egg to allow for addition of the filter paper containing growth factor. Filter discs (3 MM Whatman) of 7-8 mm diameter were pretreated with 10 μl of 0.1% cortisone acetate (Sigma) solution to avoid inflammation of the CAM. The filter discs were air dried prior to application of growth factors. […] After air-drying, the filter discs were placed on the CAM, and eggs were returned to the incubator for three days. Filter discs and the attached CAM were then excised, washed with PBS, trimmed to the size of the disc, and photographed for quantitative analysis (FIGS. 7A and 7B). The number of vessel branch points was determined using a blind protocol. The results are shown as the mean of three independent experiments ±s.e.m. (FIG. 7C).

lymphatic vessels = assay: In vivo lymphatic vessel branching assay, quail CAM; conditions: collagen disk with 50 ng apelin or 100 ng VEGF-C on CAM of 7 day quail embryos, 18 hours
Procedure: All experiments were carried out using chorioallantoic membranes (CAMs) of quail embryos. Quail embryos used for the lymphatic experiments were 7 days old. Collagen purified from rat tails (Bernanke and Markwald, 1982) was polymerized in 2 mm disks at a final concentration of approximately 1.6 mg/ml in standard phosphate buffered saline (PBS). The total volume of the collagen disk was approximately 10 μl. For experimental treatments, the collagen disks were supplemented with either 50 ng of apelin peptide or 100 ng of VEGF-C protein prior to polymerization at 37° C. for 30 minutes. The VEGF-C was a positive control for these experiments. (Recombinant Human VEGF-C (Cys156Ser), R&D Systems, cat # 752-vc). Apelin peptide was synthesized by Sigma-Genosys (>90% purity).
For lymphangiogenesis assays, the CAMs of 7 day quail embryos were exposed, in ovo, and the collagen disks were placed directly onto the surface of the CAM. […]
The samples were incubated with primary antibody (Prox1, Research Diagnostics, cat # RDI-102PA30, diluted to 2 μg/ml final concentration) for 4 hours at room temperature or overnight at 4° C. […] Both the lymphatic cell number as well as the number of lymphatic branches were determined.
Both blood vessels and lymphatic vessels were stained with the QH-1 antibody. […] The number of lymphatic vessels branching away from blood vessels (towards the collagen disk) were counted. […]

bEnd3 cells = conditions: apelin 10 ng/ml in bottom chamber; VEGF 50 ng/ml as comparison
Procedure: Cell migration assays were performed using the bEnd3 cells in Transwell cell culture migration chambers (FIG. 20). The cells were plated in serum free medium in the upper chamber of the migration chamber. […] The cells that migrated to the bottom chamber were visualized by DAPI stain of the nuclei of the cells (Panels A, B, and C).

VEGF mRNA expression = conditions: apelin-soaked bead, frog embryo
Procedure: Beads were microsurgically implanted in an avascular region, the posterior lateral mesoderm, of stage 24-26 embryos. Embryos were cultured in 0.2× MMR until stage 35-37, at which time they were prepared for whole mount in situ hybridization analysis as described in Example 2. The embryonic vascular system was visualized using an antisense probe directed against transcripts encoding the Xenopus vascular marker, erg (Baltzinger et al., 1999, Dev. Dyn. 216:420-33).

Apelin-13
apoptosis (TUNEL staining) (endothelial cells): anti-apoptotic effect on endothelial cells, to the same extent as VEGF | blood vessel formation (CAM blood vessels): increased | leakage of blood vessels (CAM blood vessels): increased | number of lymphatic vessels branching away from blood vessels (lymphatic vessels): positive regulator of lymphatic branching angiogenesis | endothelial cell migration (chemotaxis) (bEnd3 cells): acts as chemotactic agent for the endothelial cells to the same extent as VEGF | VEGF expression in the vicinity of the bead (VEGF mRNA expression): no upregulation of VEGF expression
